Results reported in patent US20250145687A1, “MODIFIED LIGAND-GATED ION CHANNELS AND METHODS OF USE” (Howard Hughes Medical Institute, priority 2022, published 2025).
Read-outs that look alike come from different tables or passages of the source.

What was measured:
Type in all cases: cell-based
[1] = target: T1, PSAM4-5HT3 (α7-5HT3^L131G,Q139L,Y217F) (Homo sapiens, UniProt P36544, L131G/M226I/Q139L/T225I/Y217F); assay: EC50 dose response of LGIC ligands on PSAM4-5HT3; settings: read-out: EC50s (SEM) for additional mutations of α7^L131G, Q139L, Y217F -5HT3
T1 construct: expressed in transfected cells; host or cells: HEK 293

[2] = target: T2, α7^L131G,Q139L,Y217F-5HT3 V154I, R155Y, W156N (Homo sapiens, UniProt P36544, L131G/M226I/Q139L/R155Y/T225I/V154I/W156N/Y217F); assay: EC50 dose response, PSAM4-5HT3 with additional mutations; settings: read-out: EC50s (SEM) for additional mutations of α7^L131G, Q139L, Y217F -5HT3
T2 construct: expressed in transfected cells; host or cells: HEK 293

[3] = target: T3, α7^L131G,Q139L,Y217F-5HT3 V154L, R155Y, W156Q (Homo sapiens, UniProt P36544, L131G/M226I/Q139L/R155Y/T225I/V154L/W156Q/Y217F); assay: as above; settings: read-out: EC50s (SEM) for additional mutations of α7^L131G, Q139L, Y217F -5HT3
T3 construct: expressed in transfected cells; host or cells: HEK 293

[4] = target: T4, α7^L131G,Q139L,Y217F-5HT3 W156N (Homo sapiens, UniProt P36544, L131G/M226I/Q139L/T225I/W156N/Y217F); assay: cell-based; settings: additional mutation W156N; read-out: EC50s (SEM) for additional mutations of α7^L131G, Q139L, Y217F -5HT3
T4 construct: expressed in transfected cells; host or cells: HEK 293

[5] = target: T5, α7^L131G,Q139L,Y217F-5HT3 W156N, H163T (Homo sapiens, UniProt P36544, H163T/L131G/M226I/Q139L/T225I/W156N/Y217F); assay: EC50 dose response, PSAM4-5HT3 with additional mutations; settings: read-out: EC50s (SEM) for additional mutations of α7^L131G, Q139L, Y217F -5HT3
T5 construct: expressed in transfected cells; host or cells: HEK 293

[6] = target: T6, α7^L131G,Q139L,Y217F-5HT3 H163A (Homo sapiens, UniProt P36544, H163A/L131G/M226I/Q139L/T225I/Y217F); assay: as above; settings: additional mutation H163A; read-out: EC50s (SEM) for additional mutations of α7^L131G, Q139L, Y217F -5HT3
T6 construct: expressed in transfected cells; host or cells: HEK 293

[7] = target: T7, α7^L131G,Q139L,Y217F-5HT3 H163D (Homo sapiens, UniProt P36544, H163D/L131G/M226I/Q139L/T225I/Y217F); assay: as above; settings: additional mutation H163D; read-out: EC50s (SEM) for additional mutations of α7^L131G, Q139L, Y217F -5HT3
T7 construct: expressed in transfected cells; host or cells: HEK 293

[8] = target: T8, α7^L131G,Q139L,Y217F-5HT3 H163F (Homo sapiens, UniProt P36544, H163F/L131G/M226I/Q139L/T225I/Y217F); assay: as above; settings: additional mutation H163F; read-out: EC50s (SEM) for additional mutations of α7^L131G, Q139L, Y217F -5HT3
T8 construct: expressed in transfected cells; host or cells: HEK 293

[9] = target: T9, α7^L131G,Q139L,Y217F-5HT3 H163K (Homo sapiens, UniProt P36544, H163K/L131G/M226I/Q139L/T225I/Y217F); assay: as above; settings: additional mutation H163K; read-out: EC50s (SEM) for additional mutations of α7^L131G, Q139L, Y217F -5HT3
T9 construct: expressed in transfected cells; host or cells: HEK 293

[10] = target: T10, α7^L131G,Q139L,Y217F-5HT3 H163N (Homo sapiens, UniProt P36544, H163N/L131G/M226I/Q139L/T225I/Y217F); assay: as above; settings: additional mutation H163N; read-out: EC50s (SEM) for additional mutations of α7^L131G, Q139L, Y217F -5HT3
T10 construct: expressed in transfected cells; host or cells: HEK 293

[11] = target: T11, α7^L131G,Q139L,Y217F-5HT3 H163R (Homo sapiens, UniProt P36544, H163R/L131G/M226I/Q139L/T225I/Y217F); assay: as above; settings: additional mutation H163R; read-out: EC50s (SEM) for additional mutations of α7^L131G, Q139L, Y217F -5HT3
T11 construct: expressed in transfected cells; host or cells: HEK 293

[12] = target: T12, α7^L131G,Q139L,Y217F-5HT3 H163S (Homo sapiens, UniProt P36544, H163S/L131G/M226I/Q139L/T225I/Y217F); assay: as above; settings: additional mutation H163S; read-out: EC50s (SEM) for additional mutations of α7^L131G, Q139L, Y217F -5HT3
T12 construct: expressed in transfected cells; host or cells: HEK 293

[13] = target: T13, α7^L131G,Q139L,Y217F-5HT3 H163T (Homo sapiens, UniProt P36544, H163T/L131G/M226I/Q139L/T225I/Y217F); assay: as above; settings: additional mutation H163T; read-out: EC50s (SEM) for additional mutations of α7^L131G, Q139L, Y217F -5HT3
T13 construct: expressed in transfected cells; host or cells: HEK 293

[14] = target: T14, α7^L131G,Q139L,Y217F-5HT3 H163V (Homo sapiens, UniProt P36544, H163V/L131G/M226I/Q139L/T225I/Y217F); assay: as above; settings: additional mutation H163V; read-out: EC50s (SEM) for additional mutations of α7^L131G, Q139L, Y217F -5HT3
T14 construct: expressed in transfected cells; host or cells: HEK 293

[15] = target: T15, α7^L131G,Q139L,Y217F-5HT3 S172A (Homo sapiens, UniProt P36544, L131G/M226I/Q139L/S172A/T225I/Y217F); assay: as above; settings: additional mutation S172A; read-out: EC50s (SEM) for additional mutations of α7^L131G, Q139L, Y217F -5HT3
T15 construct: expressed in transfected cells; host or cells: HEK 293

[16] = target: T16, α7^L131G,Q139L,Y217F-5HT3 H163T, S172A (Homo sapiens, UniProt P36544, H163T/L131G/M226I/Q139L/S172A/T225I/Y217F); assay: as above; settings: read-out: EC50s (SEM) for additional mutations of α7^L131G, Q139L, Y217F -5HT3
T16 construct: expressed in transfected cells; host or cells: HEK 293

[17] = target: T17, α7^L131G,Q139L,Y217F-5HT3 V154I, R155Y, W156N, S172A (Homo sapiens, UniProt P36544, L131G/M226I/Q139L/R155Y/S172A/T225I/V154I/W156N/Y217F); assay: as above; settings: read-out: EC50s (SEM) for additional mutations of α7^L131G, Q139L, Y217F -5HT3
T17 construct: expressed in transfected cells; host or cells: HEK 293

[18] = target: T18, α7^L131G,Q139L,Y217F-5HT3 V154I, R155Y, W156N, S172V (Homo sapiens, UniProt P36544, L131G/M226I/Q139L/R155Y/S172V/T225I/V154I/W156N/Y217F); assay: as above; settings: read-out: EC50s (SEM) for additional mutations of α7^L131G, Q139L, Y217F -5HT3
T18 construct: expressed in transfected cells; host or cells: HEK 293

[19] = target: T19, α7^L131G,Q139L,Y217F-5HT3 H163T, S172V (Homo sapiens, UniProt P36544, H163T/L131G/M226I/Q139L/S172V/T225I/Y217F); assay: as above; settings: read-out: EC50s (SEM) for additional mutations of α7^L131G, Q139L, Y217F -5HT3
T19 construct: expressed in transfected cells; host or cells: HEK 293

[20] = target: T20, α7^L131G,Q139L,Y217F-5HT3 S172I (Homo sapiens, UniProt P36544, L131G/M226I/Q139L/S172I/T225I/Y217F); assay: as above; settings: additional mutation S172I; read-out: EC50s (SEM) for additional mutations of α7^L131G, Q139L, Y217F -5HT3
T20 construct: expressed in transfected cells; host or cells: HEK 293

[21] = target: T21, α7^L131G,Q139L,Y217F-5HT3 S172V (Homo sapiens, UniProt P36544, L131G/M226I/Q139L/S172V/T225I/Y217F); assay: as above; settings: additional mutation S172V; read-out: EC50s (SEM) for additional mutations of α7^L131G, Q139L, Y217F -5HT3
T21 construct: expressed in transfected cells; host or cells: HEK 293

[22] = target: T22, α7-5HT3 L131G, Q139L, W171F (Homo sapiens, UniProt P36544, L131G/M226I/Q139L/T225I/W171F); assay: EC50 dose response, α7-5HT3 mutant; settings: read-out: EC50s (SEM) for additional mutations of α7^L131G, Q139L, Y217F -5HT3
T22 construct: expressed in transfected cells; host or cells: HEK 293

[23] = target: T23, α7-5HT3 L131G, Q139L, W171Y (Homo sapiens, UniProt P36544, L131G/M226I/Q139L/T225I/W171Y); assay: EC50 dose response, α7-5HT3 mutant; settings: read-out: EC50s (SEM) for additional mutations of α7^L131G, Q139L, Y217F -5HT3
T23 construct: expressed in transfected cells; host or cells: HEK 293

[24] = target: T24, α7-5HT3 L131G, Q139L, Y217A (Homo sapiens, UniProt P36544, L131G/M226I/Q139L/T225I/Y217A); assay: EC50 dose response, α7-5HT3 mutant; settings: read-out: EC50s (SEM) for additional mutations of α7^L131G, Q139L, Y217F -5HT3
T24 construct: expressed in transfected cells; host or cells: HEK 293

[25] = target: T25, α7-5HT3 L131G, Q139L, Y217H (Homo sapiens, UniProt P36544, L131G/M226I/Q139L/T225I/Y217H); assay: EC50 dose response, α7-5HT3 mutant; settings: read-out: EC50s (SEM) for additional mutations of α7^L131G, Q139L, Y217F -5HT3
T25 construct: expressed in transfected cells; host or cells: HEK 293

[26] = target: T26, α7-5HT3 L131G, Q139L, Y217N (Homo sapiens, UniProt P36544, L131G/M226I/Q139L/T225I/Y217N); assay: EC50 dose response, α7-5HT3 mutant; settings: read-out: EC50s (SEM) for additional mutations of α7^L131G, Q139L, Y217F -5HT3
T26 construct: 5HT3 ion pore domain (fusion partner); expressed in transfected cells

[27] = target: T27, α7-5HT3 L131G, Q139L, Y217V (Homo sapiens, UniProt P36544, L131G/M226I/Q139L/T225I/Y217V); assay: EC50 dose response, α7-5HT3 mutant; settings: read-out: EC50s (SEM) for additional mutations of α7^L131G, Q139L, Y217F -5HT3
T27 construct: 5HT3 ion pore domain (fusion partner); expressed in transfected cells; HEK 293 is named only for the electrophysiology
T27 sequence (P36544 with tags, fused parts or gaps L131G/Q139L/Y217V/T225I/M226I limits assumed): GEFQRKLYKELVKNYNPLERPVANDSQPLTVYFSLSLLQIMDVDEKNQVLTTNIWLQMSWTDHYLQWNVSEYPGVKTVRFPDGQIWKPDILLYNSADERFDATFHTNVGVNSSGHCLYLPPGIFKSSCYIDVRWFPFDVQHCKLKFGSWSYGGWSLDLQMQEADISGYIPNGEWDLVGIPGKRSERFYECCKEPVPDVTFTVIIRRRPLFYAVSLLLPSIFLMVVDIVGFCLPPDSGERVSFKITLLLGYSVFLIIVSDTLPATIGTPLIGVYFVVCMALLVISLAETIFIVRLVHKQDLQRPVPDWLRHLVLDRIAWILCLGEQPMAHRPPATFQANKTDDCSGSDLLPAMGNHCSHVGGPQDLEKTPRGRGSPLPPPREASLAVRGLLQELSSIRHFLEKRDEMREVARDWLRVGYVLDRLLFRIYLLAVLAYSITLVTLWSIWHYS

T1 sequence (P36544 with tags, fused parts or gaps L131G/Q139L/Y217F/T225I/M226I limits assumed): as the sequence (P36544 with tags, fused parts or gaps L131G/Q139L/Y217V/T225I/M226I limits assumed) above, with V195F counted along it
T17 sequence (P36544 with tags, fused parts or gaps L131G/Q139L/V154I/R155Y/W156N/S172A/Y217F/T225I/M226I limits assumed): as the sequence (P36544 with tags, fused parts or gaps L131G/Q139L/Y217V/T225I/M226I limits assumed) above, with V132I, R133Y, W134N, S150A, V195F counted along it
T25 sequence (P36544 with tags, fused parts or gaps L131G/Q139L/Y217H/T225I/M226I limits assumed): as the sequence (P36544 with tags, fused parts or gaps L131G/Q139L/Y217V/T225I/M226I limits assumed) above, with V195H counted along it
T15 sequence (P36544 with tags, fused parts or gaps L131G/Q139L/S172A/Y217F/T225I/M226I limits assumed): as the sequence (P36544 with tags, fused parts or gaps L131G/Q139L/Y217V/T225I/M226I limits assumed) above, with S150A, V195F counted along it
T9 sequence (P36544 with tags, fused parts or gaps L131G/Q139L/H163K/Y217F/T225I/M226I limits assumed): as the sequence (P36544 with tags, fused parts or gaps L131G/Q139L/Y217V/T225I/M226I limits assumed) above, with H141K, V195F counted along it
T22 sequence (P36544 with tags, fused parts or gaps L131G/Q139L/W171F/T225I/M226I limits assumed): as the sequence (P36544 with tags, fused parts or gaps L131G/Q139L/Y217V/T225I/M226I limits assumed) above, with W149F, V195Y counted along it
T16 sequence (P36544 with tags, fused parts or gaps L131G/Q139L/H163T/S172A/Y217F/T225I/M226I limits assumed): as the sequence (P36544 with tags, fused parts or gaps L131G/Q139L/Y217V/T225I/M226I limits assumed) above, with H141T, S150A, V195F counted along it
T3 sequence (P36544 with tags, fused parts or gaps L131G/Q139L/V154L/R155Y/W156Q/Y217F/T225I/M226I limits assumed): as the sequence (P36544 with tags, fused parts or gaps L131G/Q139L/Y217V/T225I/M226I limits assumed) above, with V132L, R133Y, W134Q, V195F counted along it
T7 sequence (P36544 with tags, fused parts or gaps L131G/Q139L/H163D/Y217F/T225I/M226I limits assumed): as the sequence (P36544 with tags, fused parts or gaps L131G/Q139L/Y217V/T225I/M226I limits assumed) above, with H141D, V195F counted along it
T13 sequence (P36544 with tags, fused parts or gaps L131G/Q139L/H163T/Y217F/T225I/M226I limits assumed): as the sequence (P36544 with tags, fused parts or gaps L131G/Q139L/Y217V/T225I/M226I limits assumed) above, with H141T, V195F counted along it

CCCOc1cnc2cc3c(cc2n1)C1CNCC3C1 (stereo not shown) [uPSEM 817]
EC50 ([1]; PSAM4-5HT3 (no additional mutation)): 4.1 nM | EC50 ([1]; line L131G, Q139L, Y217F (same values as PSAM4-5HT3 line)): 4.1 nM | EC50 [2]: 13 nM | EC50 [3]: 17 nM | EC50 [4]: 15 nM | EC50 [5]: 13 nM | EC50 [6]: 53 nM | EC50 [7]: 2.5 nM | EC50 [8]: 8.2 nM | EC50 [9]: 10 nM | EC50 [10]: 9.1 nM | EC50 [11]: 5.5 nM | EC50 [12]: 8.1 nM | EC50 [13]: 12 nM | EC50 [14]: 9 nM | EC50 [15]: 7 nM | EC50 [16]: 7.8 nM | EC50 [17]: 12 nM | EC50 [18]: 13 nM | EC50 [19]: 6.3 nM | EC50 [20]: 18 nM | EC50 [21]: 6 nM | EC50 [22]: > 100 nM | EC50 [23]: > 100 nM | EC50 [24]: 9.2 nM | EC50 [25]: 16 nM | EC50 [26]: > 100 nM | EC50 [27]: 24 nM
